Source: patent US9000022B2 (Exelixis Patent Company LLC, priority 2005, dated 2015)

Test system: LXRα and/or LXRβ
Assay: Co-transfection assay (LXRE luciferase reporter, CV-1 cells)
Format: cell-based, human
Conditions: tested as described in Example 33; IC50 or EC50 for LXRα and/or LXRβ, isoform not specified; read-out: activity (IC50 or EC50 for LXR)
In short: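 Luciferase signal measures LXR-RXR transcriptional activation in transiently transfected CV-1 cells carrying human LXRα or LXRβ, RXRα and a single-copy LXRE reporter. Cells were exposed to compound for 20 h at 37 °C with at most 1% DMSO, using 10 μM final for screening. Potency was derived from 4-parameter fits of 8-point, half-log dose curves averaged over ≥3 runs, and efficacy was expressed as % of a reference agonist.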

CC(C)(O)c1cn(-c2ccc(-c3cccc(S(C)(=O)=O)c3)cc2Cl)c(-c2ccccc2Cl)n1 [Example 417, 2-{1-[3-chloro-3′-(methyl-sulfonyl)biphenyl-4-yl]-2-(2-chlorophenyl)-1H-imidazol-4-yl}propan-2-ol]
IC50 or EC50 (potency, activation or inhibition): < 1000 nM

Cc1cc(-c2cccc(S(C)(=O)=O)c2)ccc1-n1cc(C(C)(C)O)nc1-c1ccccc1Cl [Example 418, 2-{2-(2-chlorophenyl)-1-[3-methyl-3′-(methylsulfonyl)biphenyl-4-yl]-1H-imidazol-4-yl}propan-2-ol]
IC50 or EC50 (potency, activation or inhibition): < 1000 nM

CCS(=O)(=O)c1cccc(-c2ccc(-n3cc(C(C)(C)O)nc3-c3c(F)cccc3F)cc2)c1 [Example 419, 2-{2-(2,6-difluorophenyl)-1-[3′-(ethylsulfonyl)biphenyl-4-yl]-1H-imidazol-4-yl}propan-2-ol]
IC50 or EC50 (potency, activation or inhibition): 1000 to 10000 nM

CC(C)(O)c1cn(-c2ccc(-c3cccc(S(C)(=O)=O)c3)cn2)c(-c2ccccc2C(F)(F)F)n1 [Example 420, 2-(1-{5-[3-(methyl-sulfonyl)phenyl]pyridin-2-yl}-2-[2-(trifluoromethyl)phenyl]-1H-imidazol-4-yl)propan-2-ol]
IC50 or EC50 (potency, activation or inhibition): 1000 to 10000 nM

CC(C)(O)c1cn(-c2ccc(-c3cccc(S(C)(=O)=O)c3)nc2)c(-c2ccccc2C(F)(F)F)n1 [Example 421, 2-(1-{6-[3-(methyl-sulfonyl)phenyl]pyridin-3-yl}-2-[2-(trifluoromethyl)phenyl]-1H-imidazol-4-yl)propan-2-ol]
IC50 or EC50 (potency, activation or inhibition): 1000 to 10000 nM

CC(C)(O)c1cn(Cc2ccccc2Cl)c(-c2ccc(-c3cccc(S(C)(=O)=O)c3)cc2)n1 [Example 443, 2-(1-(2-chlorobenzyl)-2-(3′-(methylsulfonyl)biphenyl-4-yl)-1H-imidazol-4-yl)propan-2-ol]
IC50 or EC50 (potency, activation or inhibition): < 1000 nM

CC(C)(O)c1cn(Cc2cccc(Cl)c2Cl)c(-c2ccc(-c3cccc(S(C)(=O)=O)c3)cc2)n1 [Example 444, 2-(1-(2,3-dichlorobenzyl)-2-(3′-(methylsulfonyl)biphenyl-4-yl)-1H-imidazol-4-yl)propan-2-ol]
IC50 or EC50 (potency, activation or inhibition): < 1000 nM

CC(C)(O)c1nc(-c2ccc(-c3cccc(S(C)(=O)=O)c3)cc2Cl)n(-c2c(Cl)cccc2Cl)c1Cl [Example 445, 2-(5-chloro-2-(3-chloro-3′-(methylsulfonyl)biphenyl-4-yl)-1-(2,6-dichlorophenyl)-1H-imidazol-4-yl)propan-2-ol]
IC50 or EC50 (potency, activation or inhibition): < 1000 nM

CON(C)C(=O)c1ccc(-c2ccc(-n3cc(C(C)(C)O)nc3-c3c(F)cccc3Cl)c(Cl)c2)cc1S(C)(=O)=O [Example 448, 3′-chloro-4′-(2-(2-chloro-6-fluorophenyl)-4-(2-hydroxypropan-2-yl)-1H-imidazol-1-yl)-N-methoxy-N-methyl-3-(methylsulfonyl)biphenyl-4-carboxamide]
IC50 or EC50 (potency, activation or inhibition): > 10000 nM

CC(C)(O)c1cn(-c2ccc(-c3cccc(S(C)(=O)=O)c3)cc2F)c(Cc2cccc(Cl)c2Cl)n1 [Example 449, 2-(2-(2,3-dichlorobenzyl)-1-(3-fluoro-3′-(methylsulfonyl)biphenyl-4-yl)-1H-imidazol-4-yl)propan-2-ol]
IC50 or EC50 (potency, activation or inhibition): < 1000 nM

CCS(=O)(=O)c1cccc(-c2ccc(-n3cc(C(C)(C)O)nc3Cc3cccc(Cl)c3Cl)c(F)c2)c1 [Example 450, 2-(2-(2,3-dichlorobenzyl)-1-(3′-(ethylsulfonyl)-3-fluorobiphenyl-4-yl)-1H-imidazol-4-yl)propan-2-ol]
IC50 or EC50 (potency, activation or inhibition): < 1000 nM

CC(C)(O)c1cn(-c2ccc(-c3cccc(S(C)(=O)=O)c3)cc2Cl)c(C(C)(C)c2cccc(Cl)c2Cl)n1 [Example 451, 2-(1-(3-chloro-3′-(methyl-sulfonyl)biphenyl-4-yl)-2-(2-(2,3-dichlorophenyl)propan-2-yl)-1H-imidazol-4-yl)propan-2-ol]
IC50 or EC50 (potency, activation or inhibition): < 1000 nM

CCS(=O)(=O)c1cccc(-c2ccc(-n3cc(C(C)(C)O)nc3C(C)(C)c3cccc(Cl)c3Cl)c(Cl)c2)c1 [Example 452, 2-(1-(3-chloro-3′-(ethyl-sulfonyl)biphenyl-4-yl)-2-(2-(2,3-dichlorophenyl)propan-2-yl)-1H-imidazol-4-yl)propan-2-ol]
IC50 or EC50 (potency, activation or inhibition): < 1000 nM

CC(C)(O)c1cn(-c2ccc(-c3ccc(C(N)=O)c(S(C)(=O)=O)c3)cc2Cl)c(-c2c(F)cccc2Cl)n1 [Example 453]
IC50 or EC50 (potency, activation or inhibition): 1000 to 10000 nM

COc1ccc(-c2ccc(-n3cc(C(C)(C)O)nc3-c3c(F)cccc3Cl)c(Cl)c2)cc1S(C)(=O)=O [Example 454, 2-(1-(3-chloro-4′-methoxy-3′-(methylsulfonyl)biphenyl-4-yl)-2-(2-chloro-6-fluorophenyl)-1H-imidazol-4-yl)propan-2-ol]
IC50 or EC50 (potency, activation or inhibition): 1000 to 10000 nM

COc1ccc(-c2ccc(-n3cc(C(C)(C)O)nc3-c3cccc(Cl)c3Cl)cc2)cc1S(C)(=O)=O [Example 455, 2-(2-(2,3-dichlorophenyl)-1-(4′-methoxy-3′-(methylsulfonyl)biphenyl-4-yl)-1H-imidazol-4-yl)propan-2-ol]
IC50 or EC50 (potency, activation or inhibition): < 1000 nM

COc1ccc(-c2ccc(-n3cc(C(C)(C)O)nc3Cc3cccc(Cl)c3Cl)c(C)c2)cc1S(C)(=O)=O [Example 456, 2-(2-(2,3-dichlorobenzyl)-1-(4′-methoxy-3-methyl-3′-(methyl-sulfonyl)biphenyl-4-yl)-1H-imidazol-4-yl)propan-2-ol]
IC50 or EC50 (potency, activation or inhibition): < 1000 nM

COc1ccc(-c2ccc(-n3cc(C(C)(C)O)nc3Cc3cccc(Cl)c3Cl)c(Cl)c2)cc1S(C)(=O)=O [Example 457, 2-(1-(3-chloro-4′-methoxy-3′-(methyl-sulfonyl)biphenyl-4-yl)-2-(2,3-dichlorobenzyl)-1H-imidazol-4-yl)propan-2-ol]
IC50 or EC50 (potency, activation or inhibition): < 1000 nM

CC(C)(O)c1cn(-c2ccc(-c3cccc(S(C)(=O)=O)c3)cc2)c(-c2c(Cl)cccc2-c2cccc(S(C)(=O)=O)c2)n1 [Example 458, 2-(2-(3-chloro-3′-(methyl-sulfonyl)biphenyl-2-yl)-1-(3′-(methylsulfonyl)biphenyl-4-yl)-1H-imidazol-4-yl)propan-2-ol]
IC50 or EC50 (potency, activation or inhibition): 1000 to 10000 nM

CS(=O)(=O)c1cccc(-c2ccc(-n3cc(C(=O)NCC(F)(F)F)nc3-c3c(Cl)cccc3Cl)c(Cl)c2)c1 [Example 459, 1-(3-chloro-3′-(methyl-sulfonyl)biphenyl-4-yl)-2-(2,6-dichlorophenyl)-N-(2,2,2-trifluoro-ethyl)-1H-imidazole-4-carboxamide]
IC50 or EC50 (potency, activation or inhibition): < 1000 nM

CS(=O)(=O)c1cccc(-c2ccc(-n3cc(C(=O)NCCF)nc3-c3c(Cl)cccc3Cl)c(Cl)c2)c1 [Example 460, 1-(3-chloro-3′-(methyl-sulfonyl)biphenyl-4-yl)-2-(2,6-dichlorophenyl)-N-(2-fluoroethyl)-1H-imidazole-4-carboxamide]
IC50 or EC50 (potency, activation or inhibition): < 1000 nM

CS(=O)(=O)c1cccc(-c2ccc(-n3cc(C(=O)NCC(=O)O)nc3-c3c(Cl)cccc3Cl)c(Cl)c2)c1 [Example 461, 2-(1-(3-chloro-3′-(methyl-sulfonyl)biphenyl-4-yl)-2-(2,6-dichlorophenyl)-1H-imidazole-4-carboxamido)acetic acid]
IC50 or EC50 (potency, activation or inhibition): > 10000 nM

CCS(=O)(=O)c1cccc(-c2ccc(-n3cc(C(=O)NCC(F)(F)F)nc3-c3c(Cl)cccc3Cl)c(Cl)c2)c1 [Example 462, 1-(3-chloro-3′-(ethylsulfonyl)biphenyl-4-yl)-2-(2,6-dichlorophenyl)-N-(2,2,2-trifluoroethyl)-1H-imidazole-4-carboxamide]
IC50 or EC50 (potency, activation or inhibition): < 1000 nM

CC(C)(CO)NC(=O)c1cn(-c2ccc(-c3cccc(S(C)(=O)=O)c3)cc2Cl)c(-c2c(Cl)cccc2Cl)n1 [Example 463, 1-(3-chloro-3′-(methylsulfonyl)biphenyl-4-yl)-2-(2,6-dichlorophenyl)-N-(1-hydroxy-2-methylpropan-2-yl)-1H-imidazole-4-carboxamide]
IC50 or EC50 (potency, activation or inhibition): < 1000 nM

CCS(=O)(=O)c1cccc(-c2ccc(-n3cc(C(=O)NC(C)(C)CO)nc3-c3c(Cl)cccc3Cl)c(Cl)c2)c1 [Example 464, 1-(3-chloro-3′-(ethylsulfonyl)biphenyl-4-yl)-2-(2,6-dichlorophenyl)-N-(1-hydroxy-2-methylpropan-2-yl)-1H-imidazole-4-carboxamide]
IC50 or EC50 (potency, activation or inhibition): < 1000 nM

CC(C)(C)NC(=O)c1cn(-c2ccc(-c3cccc(S(C)(=O)=O)c3)cc2Cl)c(-c2c(Cl)cccc2Cl)n1 [Example 465, N-tert-butyl-1-(3-chloro-3′-(methylsulfonyl)biphenyl-4-yl)-2-(2,6-dichlorophenyl)-1H-imidazole-4-carboxamide]
IC50 or EC50 (potency, activation or inhibition): < 1000 nM

Cc1cc(-c2ccc(C(=O)O)cc2Cl)ccc1-n1cc(C(C)(C)O)nc1-c1c(Cl)cccc1Cl [Example 466, 2-chloro-4′-(2-(2,6-dichlorophenyl)-4-(2-hydroxypropan-2-yl)-1H-imidazol-1-yl)-3′-methylbiphenyl-4-carboxylic acid]
IC50 or EC50 (potency, activation or inhibition): > 10000 nM

CC(C)(O)c1cn(-c2ccc(-c3cc(S(C)(=O)=O)ccc3Cl)cc2Cl)c(-c2c(Cl)cccc2Cl)n1 [Example 467, 2-(1-(2′,3-dichloro-5′-(methyl-sulfonyl)biphenyl-4-yl)-2-(2,6-dichlorophenyl)-1H-imidazol-4-yl)propan-2-ol]
IC50 or EC50 (potency, activation or inhibition): < 1000 nM

Cc1cc(-c2cc(S(C)(=O)=O)ccc2Cl)ccc1-n1cc(C(C)(C)O)nc1Cc1cccc(Cl)c1Cl [Example 468, 2-(1-(2′-chloro-3-methyl-5′-(methylsulfonyl)biphenyl-4-yl)-2-(2,3-dichlorobenzyl)-1H-imidazol-4-yl)propan-2-ol]
IC50 or EC50 (potency, activation or inhibition): < 1000 nM
